{"source": "patent US6632834B2", "about": "“Compositions and methods for treating conditions responsive to estrogen” (Pfizer Inc., priority 2000, dated 2003)", "key": {"MCF-7 cells": {"system": "MCF-7 cells", "assay": "Inhibition of in vitro human breast tumor cell growth (direct cell counts), ER-positive cells", "format": "cell-based", "settings": "MCF-7 (ER-positive), 6 days incubation", "experimental": "(§1) The in vitro antiproliferative effects of (−)-cis-6-phenyl-5-[4-(2-pyrrolidin-1-yl-ethoxy)-phenyl]-5,6,7,8-tetrahydro-naphthalene-2-ol (PPTN) were tested using two types of human breast cancer cell lines: first, MCF-7 cells, which contain ER as well as progesterone receptors (PgR), and second, MDA-MB-231 cells, which lack ER and PgR, and enable the determination of an effect that is independent of the ER mechanism. The effect of PPTN on the growth of these different cell lines was determined by incubation of the cells with various compound concentrations for 6 days.\n(§2) The antiproliferative effects were then determined by direct cell counts. PPTN inhibited the growth of the ER-positive cell line MCF-7."}, "MDA-MB-231 cells": {"system": "MDA-MB-231 cells", "assay": "Inhibition of in vitro human breast tumor cell growth (direct cell counts), ER-negative cells", "format": "cell-based", "settings": "MDA-MB-231 (ER-negative), 6 days incubation", "experimental": "as §1, §2"}}}
{"smiles": "Oc1ccc2c(c1)CC[C@H](c1ccccc1)[C@@H]2c1ccc(OCCN2CCCC2)cc1", "note": "[PPTN, (−)-cis-6-phenyl-5-[4-(2-pyrrolidin-1-yl-ethoxy)-phenyl]-5,6,7,8-tetrahydro-naphthalene-2-ol]", "values": [{"measurement": "IC50 for growth inhibition", "setting": "MCF-7 cells", "value": "3 to 5×10^−11 M"}, {"measurement": "inhibition of cell proliferation", "setting": "MDA-MB-231 cells", "value": "did not inhibit cell proliferation"}]}
